In US10810329B2, “In silico design of peptides equilibrated in a lipid bilayer with partition free energies indicating probability of antimicrobial activity” (priority 2015, dated 2020):
Converted amounts (≈) assume the structure as drawn. Peptide text beside a SMILES is read from it.

What was measured:
[1] = tested on: Escherichia coli strain (ATCC 25922); assay type: cell-based
Experimental: (§1) Minimal inhibitory concentration (MIC) represents for the lowest concentration of peptide at which the AMP can still kill 90% of the bacteria. All MIC tests for WLK peptide series SEQ ID NO:1-13 were measured against Escherichia coli strain (ATCC 25922) in triplicate. Peptide concentration was determined by UV spectrophotometer (Ultrospec 1100 pro from Amersham Biosciences) at 280 nm with proper extinction coefficient. (Gill S. C. & Von Hippel P. H., Analytical biochemistry 1989, 182(2), 319-326). All of the samples were prepared from a stock solution containing peptides of concentrations 5, 2.5, 1.25, 0.625, 0.313, 0.156 and 0.078 mg/ml. Bacteria culture in the middle of logarithmic growth at a concentration of 5×10^5 colony-formation unit (CFU) and protein solution at the aforementioned concentrations were uniformly mixed in a 96-well culture plate (each well contains 1 microliter protein solution and 99 microliter of bacteria culture). After growing the culture at 37° C. for 16 hours, how bacterial growth was inhibited was measured by Thermo Max (Molecular Devices) at the wavelength of 600 nm. The MIC values were determined by triplicates of the above experiments.

E. coli ATCC 25922 = assay type: cell-based, Escherichia coli; conditions: for Antimicrobial activity (MIC) Experimental values: ATCC 25922; for MIC in MH medium: ATCC 25922, 16 h
Experimental: as §1, with “MIC: Minimal Inhibitory Concentration of AMPs in MH Medium Against E. coli ATCC 25922 Minimal” for “Minimal”

human red blood cells = assay type: cell-based
Experimental: Hemolysis Activity Test Hemolytic activity was determined by measuring hemolysis of human red blood cells. Fresh red blood cells and PBS buffer solution (pH 7.4) was mixed uniformly and centrifugated by relative centrigugal force (RCF) 800 g rpm for 10 minutes, washed and then diluted by the PBS buffer solution to 10% concentration by volume (v/v). All the tested peptides were prepared with different concentrations (800, 400, 200, 100, 50, 25, 12.5, 6.25, 3.13, 1.56 μg/ml) and then mixed with PBS buffer in 1:1 ratio (100 μL:100 μL) by volume. In 1:1 ratio (v/v), the red blood cell solution was mixed with a PBS buffer, with or without 2% Triton X-100, respectively as the positive and negative controls. All samples to be tested were settled at 37° C. environment for 1 hour. Next, the specimen was centrifuged under RCF 800 g for 10 minutes and the absorbance of its supernatant was measured at a wavelength of 450 nm. The hemolytic activity would be measured according to the following formula: “% hemolysis=[Asample−APBS]/[ATritonX100−APBS]”

SMILES	MIC in LYM medium, NaCl 50 [1] [µg/mL]	MIC in LYM medium, NaCl 100 [1] [µg/mL]	MIC in LYM medium, NaCl 200 [1] [µg/mL]	MIC in LYM medium, NaCl 300 [1] [µg/mL]	MIC in LYM medium, control [1] [µg/mL]	Antimicrobial activity (MIC) Experimental values (E. coli ATCC 25922) [µg/mL]	MIC in MH medium (E. coli ATCC 25922) [µg/mL]	hemolytic activity on human erythrocytes (human red blood cells)
CC(C)C[C@H](NC(=O)[C@H](Cc1c[nH]c2ccccc12)NC(=O)[C@H](CCCCN)NC(=O)[C@H](CC(C)C)NC(=O)[C@H](Cc1c[nH]c2ccccc12)NC(=O)[C@H](CCCCN)NC(=O)[C@H](CC(C)C)NC(=O)[C@H](Cc1c[nH]c2ccccc12)NC(=O)[C@H](CCCCN)NC(=O)[C@H](CCCCN)NC(=O)[C@H](CCCCN)NC(=O)[C@H](CCCCN)NC(=O)[C@@H](N)CCCCN)C(=O)O [SEQ ID NO. 11, KKKKKWLKWLKWL] (H-KKKKKWLKWLKWL-OH; N-terminus and C-terminus assumed)	1.56 (≈ 0.86 µM)	1.56 (≈ 0.86 µM)	1.56 (≈ 0.86 µM)	3.13 (≈ 1.73 µM)	1.56 (≈ 0.86 µM)	1.56	1.56 (≈ 0.86 µM)	–
CC(C)C[C@H](NC(=O)[C@H](Cc1c[nH]c2ccccc12)NC(=O)[C@H](CCCCN)NC(=O)[C@H](CC(C)C)NC(=O)[C@H](Cc1c[nH]c2ccccc12)NC(=O)[C@H](CCCCN)NC(=O)[C@H](CC(C)C)NC(=O)[C@H](Cc1c[nH]c2ccccc12)NC(=O)[C@H](CCCCN)NC(=O)[C@H](CCCCN)NC(=O)[C@H](CCCCN)NC(=O)[C@@H](N)CCCCN)C(=O)N[C@@H](CCCCN)C(=O)O [SEQ ID NO. 12, KKKKWLKWLKWLK] (H-KKKKWLKWLKWLK-OH)	1.56 (≈ 0.86 µM)	3.13 (≈ 1.73 µM)	3.13 (≈ 1.73 µM)	3.13 (≈ 1.73 µM)	1.56 (≈ 0.86 µM)	1.56	1.56 (≈ 0.86 µM)	lower hemolytic activity
CC(C)C[C@H](NC(=O)[C@H](Cc1c[nH]c2ccccc12)NC(=O)[C@H](CCCCN)NC(=O)[C@H](CC(C)C)NC(=O)[C@H](Cc1c[nH]c2ccccc12)NC(=O)[C@H](CCCCN)NC(=O)[C@H](CC(C)C)NC(=O)[C@H](Cc1c[nH]c2ccccc12)NC(=O)[C@H](CCCCN)NC(=O)[C@H](CCCCN)NC(=O)[C@@H](N)CCCCN)C(=O)N[C@@H](CCCCN)C(=O)N[C@@H](CCCCN)C(=O)O [SEQ ID NO. 13, KKKWLKWLKWLKK] (H-KKKWLKWLKWLKK-OH; N-terminus and C-terminus assumed)	3.13 (≈ 1.73 µM)	1.56 (≈ 0.86 µM)	3.13 (≈ 1.73 µM)	12.5 (≈ 6.89 µM)	1.56 (≈ 0.86 µM)	1.56	1.56 (≈ 0.86 µM)	–
